Experimental data as given in patent US20100299770A1, “TARGETED CELL DEATH” (priority 2007, published 2010).

Columns and labels:
[1] = tested on: primary oligodendrocyte cultures; test: CID-induced cell death in iCP9 virus-transduced primary oligodendrocyte cultures; format: cell-based, rat; details: CID 10 nM; cultures stably expressing iCP9; fluorescent microscope and Methylene Blue viability staining
Procedure: 293T cells were transfected with the pΔmbpICP9/mEGFP vector along with plasmids encoding the gag-pol and RD114 envelope protein using lipofectamine (Invitrogen, Carlsbad, Calif.). Forty-eight hours after transfection viral supernatant were harvested and either directly applied to target cells or snap frozen and stored at -80° C.
To induce timely cell death. Collected virus was used to transduce primary oligodendrocyte cultures that have been established. Cells were cultured and evaluated using fluorescent microscopy for the expression of GFP. The extent of GFP positive cells correlated with the viral infection efficacy. Cell protein isolation was conducted and protein isolates were subjected to Western blot transfer to detect stable expression of the iCP9 protein. The resultant membrane was probed with anti-caspase 9 antibody (R&D Systems Inc. #AF8301). Once the stable expression of iCP9 was confirmed at the protein level wan western mot techniques, the CID was applied to these cells in culture at a 10 nM concentration. […] Cell death was detected by viewing cultures under the fluorescent microscope and by using Methylene Blue (Sigma) viability staining of cells in culture after exposure to the CID. All experiments were run in parallel using the astrocyte-derived U87 cell line as a negative control.

CNS of adult rats = test: Animal model of CNS demyelination, virus applied to CNS of adult rats, CID intraperitoneal; format: in vivo, rat; details: CID via intraperitoneal injection at various times after virus
Procedure: The virus described above, pΔmbpICP9/mEGFP, which contains the inducible caspase 9 sequence was applied to the CNS of adult rats to create an in vivo model of CNS demyelination. Administration of the viral vector allowed effective transfer of genetic information in a variable area of parenchyma based on the rate of administration (convective distribution) and viral titer. […] First, adult Fischer rats were anaesthetized by intraperitoneal injection o f ketamine hydrocholoride (80 mg/kg) and xylazine ([…]) and placed in a sereotactic frame. A midline scalp incision is made. Access to brain parenchyma was accomplished by plaement of a right-sided burr hole through the skull, at various predetermined coordinates depending on the desired location of the lesion. […] The volume of viral vector (e.g., lentivirus) delivered depends upon the infection efficacy as determined herein and the target area size. After injection, the needle is left in place for five minutes and then slowly withdrawn over the next four minutes. The skin was closed with sutures.
For virus administration to the spinal cord an incision was made in the thoracic spine followed by a lamenectomy to expose the spinal cord. A No. 32S-gauge needle was passed into the posterior column at predetermined coordinates.

CC[C@H](C(=O)N1CCCC[C@H]1C(=O)O[C@H](CCc1ccc(OC)c(OC)c1)c1cccc(OCC(=O)NCC(CNC(=O)COc2cccc([C@@H](CCc3ccc(OC)c(OC)c3)OC(=O)[C@@H]3CCCCN3C(=O)[C@@H](CC)c3cc(OC)c(OC)c(OC)c3)c2)CN(C)C)c1)c1cc(OC)c(OC)c(OC)c1 [CID, AP20187]
cell death of infected cells after CID [1]: induced the cellular death of infected cells | effect of CID on the infected region of the CNS (CNS of adult rats): apoptosis of the infected region of the CNS
